Data reported in patent publication US10934263B2, “Charged ion channel blockers and methods for use” (Nocion Therapeutics, Inc., priority 2019, dated 2021).
Several values for one entry are separate records, joined by “and”; a condition that tells them apart may be missing. Equal entries are not always repeated.

Key:
[1] = target: T1, NaV1.7 (Homo sapiens, UniProt Q15858); assay: Automated patch clamp (Qube 384), internal block of NaV1.7 in HEK293 cells; assay type: cell-based; conditions: compound in internal solution, read-out: Nav1.7 Intracellular Inhibition (IC50)
T1 construct: expressed in transfected cells; tetracycline-inducible, kept under hygromycin and blasticidin
T1 sequence (Q15858 whole entry): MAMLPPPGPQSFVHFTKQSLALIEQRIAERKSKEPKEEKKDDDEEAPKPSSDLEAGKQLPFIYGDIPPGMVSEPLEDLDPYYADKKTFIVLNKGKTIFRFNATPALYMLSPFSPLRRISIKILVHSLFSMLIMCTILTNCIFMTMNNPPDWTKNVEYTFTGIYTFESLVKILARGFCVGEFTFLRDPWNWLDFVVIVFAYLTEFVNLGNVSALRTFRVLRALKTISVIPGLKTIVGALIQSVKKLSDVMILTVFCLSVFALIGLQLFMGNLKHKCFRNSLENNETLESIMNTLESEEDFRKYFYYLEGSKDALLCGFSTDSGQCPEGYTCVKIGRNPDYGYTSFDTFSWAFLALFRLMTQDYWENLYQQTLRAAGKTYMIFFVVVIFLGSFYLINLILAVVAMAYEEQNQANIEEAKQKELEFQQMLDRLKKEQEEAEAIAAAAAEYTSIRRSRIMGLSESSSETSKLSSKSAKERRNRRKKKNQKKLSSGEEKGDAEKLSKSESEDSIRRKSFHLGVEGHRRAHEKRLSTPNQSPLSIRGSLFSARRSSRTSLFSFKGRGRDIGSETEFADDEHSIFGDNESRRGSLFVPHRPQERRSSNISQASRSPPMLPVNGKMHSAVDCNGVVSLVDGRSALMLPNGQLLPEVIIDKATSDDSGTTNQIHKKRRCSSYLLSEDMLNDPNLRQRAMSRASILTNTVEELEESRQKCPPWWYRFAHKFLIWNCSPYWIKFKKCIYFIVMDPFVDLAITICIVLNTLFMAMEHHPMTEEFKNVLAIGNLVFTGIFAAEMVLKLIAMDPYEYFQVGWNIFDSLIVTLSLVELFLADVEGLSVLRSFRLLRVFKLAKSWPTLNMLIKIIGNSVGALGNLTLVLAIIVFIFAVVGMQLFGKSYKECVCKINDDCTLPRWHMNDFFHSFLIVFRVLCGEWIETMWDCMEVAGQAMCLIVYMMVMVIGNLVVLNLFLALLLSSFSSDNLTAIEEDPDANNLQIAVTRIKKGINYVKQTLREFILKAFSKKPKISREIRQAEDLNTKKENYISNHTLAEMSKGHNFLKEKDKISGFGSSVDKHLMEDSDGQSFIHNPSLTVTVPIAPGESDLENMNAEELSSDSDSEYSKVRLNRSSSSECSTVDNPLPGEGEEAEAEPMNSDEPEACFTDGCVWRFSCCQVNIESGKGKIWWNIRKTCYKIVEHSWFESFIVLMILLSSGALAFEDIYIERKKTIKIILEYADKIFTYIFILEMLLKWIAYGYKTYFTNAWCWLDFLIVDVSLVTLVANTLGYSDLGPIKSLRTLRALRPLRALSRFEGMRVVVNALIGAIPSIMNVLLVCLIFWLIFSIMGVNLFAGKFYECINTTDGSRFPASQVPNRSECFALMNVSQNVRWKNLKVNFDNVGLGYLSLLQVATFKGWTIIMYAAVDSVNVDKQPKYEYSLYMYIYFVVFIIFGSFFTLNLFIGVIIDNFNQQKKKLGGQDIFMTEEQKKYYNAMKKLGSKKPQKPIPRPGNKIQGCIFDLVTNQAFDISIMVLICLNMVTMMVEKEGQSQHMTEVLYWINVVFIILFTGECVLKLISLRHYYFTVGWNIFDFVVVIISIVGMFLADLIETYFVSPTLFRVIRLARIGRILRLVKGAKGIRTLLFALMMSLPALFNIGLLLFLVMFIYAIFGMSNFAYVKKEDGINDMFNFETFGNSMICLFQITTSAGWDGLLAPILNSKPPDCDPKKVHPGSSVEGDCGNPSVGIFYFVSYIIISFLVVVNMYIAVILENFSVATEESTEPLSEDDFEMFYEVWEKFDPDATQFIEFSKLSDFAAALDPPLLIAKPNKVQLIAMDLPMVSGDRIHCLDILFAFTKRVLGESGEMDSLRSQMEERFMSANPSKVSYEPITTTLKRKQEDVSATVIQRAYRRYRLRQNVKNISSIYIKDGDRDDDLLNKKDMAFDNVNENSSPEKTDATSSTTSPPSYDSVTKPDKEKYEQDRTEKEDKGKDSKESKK
How it was run: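 Tetracycline-induced HEK293 cells, 22° C; CsF-based internal (pH 7.3), compound dissolved in internal solution, exchanged after baseline 5 Hz pulsing (−100 to −20 mV, 10 ms), then recorded 10 min. Remaining current averaged from last 3 points versus Step 2 baseline, rundown-corrected with non-drug cells; IC50 from Hill fit.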

[2] = target: T1, NaV1.7; assay: Automated patch clamp (Qube 384), external block of NaV1.7 in HEK293 cells; assay type: cell-based; conditions: compound in external solution, read-out: Nav1.7 Extracellular Inhibition (IC50)
How it was run: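 Tetracycline-induced HEK293 cells; whole-cell patch clamp at 22 degrees, compound in external solution (pH 7.4; CsF internal). Held at −100 mV with 10 ms pulses to −20 mV at 5 Hz, recorded 10 min after compound exchange. Control-corrected; IC50 from Hill fit.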

Row | SMILES | IC50 [1] [µM] | IC50 [2]
1 | Cc1cccc(C)c1NC(=O)C[n+]1cccn1CC#N [Compound 69] | 10 to 30 | > 100 µM
2 | CCOC(=O)c1cc(C)[n+](CC(=O)Nc2c(C)cccc2C)n1C [Compound 84] | 3 to 10 | > 100 µM
3 | Cc1cccc(C)c1NC(=O)Cn1ccc[n+]1CC(=O)Nc1c(C)cccc1C [Compound 109] | < 1 | > 100 µM
4 | Cc1cccc(C)c1NC(=O)C[n+]1cccn1C1CCCC1 [Compound 71] | < 1 | > 100 µM
5 | Cc1cccc(C)c1NC(=O)C[n+]1c(C)cc(C)n1C [Compound 94] | < 1 | 30 to 100 µM
6 | Cc1cccc(C)c1NC(=O)C(CC(C)C)[n+]1ccccc1 (stereo not drawn) [Compound 108] | 1 to 3 | > 100 µM
7 | Cc1cccc(C)c1NC(=O)C[n+]1cc(OCc2ccccc2)ccc1Cl [Compound 103] | 3 to 10 | 30 to 100 µM
8 | Cc1cccc(C)c1NC(=O)C[n+]1cc2ccccc2n1C [Compound 54] | 3 to 10 | 30 to 100 µM
9 | CCCn1ccc(C)[n+]1CC(=O)Nc1c(C)cccc1C [Compound 101] | 3 to 10 | > 100 µM
10 | COc1cc(OC)c[n+](CC(=O)Nc2c(C)cccc2C)c1 [Compound 98] | 1 to 3 | > 100 µM
11 | Cc1cccc(C)c1NC(=O)C[n+]1cc(F)cc(-c2ccccc2)c1 [Compound 77] | < 1 | 10 to 30 µM
12 | COC(=O)c1c(F)c[n+](CC(=O)Nc2c(C)cccc2C)cc1F [Compound 89] | 3 to 10 | > 100 µM
13 | CCOC(=O)CCCn1ccc[n+]1CC(=O)Nc1c(C)cccc1C [Compound 75] | < 1 | > 100 µM
14 | Cc1cccc(C)c1NC(=O)C[n+]1cccc(N2CCCC2)c1 [Compound 51] | < 1 | > 100 µM
15 | CCNc1ccc[n+](CC(=O)Nc2c(C)cccc2C)c1 [Compound 50] | 1 to 3 | 30 to 100 µM and > 100 µM
16 | Cc1cccc(C)c1NC(=O)C[n+]1cccc(C(F)(F)F)c1 [Compound 66] | 1 to 3 | 30 to 100 µM
17 | CCn1ccc(C)[n+]1CC(=O)Nc1c(C)cccc1C [Compound 95] | 1 to 3 | > 100 µM
18 | Cc1cccc(C)c1NC(=O)C[n+]1cccc(S(C)(=O)=O)c1 [Compound 46] | 3 to 10 | 10 to 30 µM
19 | CCOC(=O)Cn1cc(C)c[n+]1CC(=O)Nc1c(C)cccc1C [Compound 76] | 3 to 10 | > 100 µM
20 | CNC(=O)Cc1ccc[n+](CC(=O)Nc2c(C)cccc2C)c1 [Compound 33] | 1 to 3 | > 100 µM
21 | CCCCn1ccc[n+]1CC(=O)Nc1c(C)cccc1C [Compound 83] | 1 to 3 | > 100 µM
22 | Cc1cccc(C)c1NC(=O)C[n+]1cccn1CC1CC1 [Compound 73] | 1 to 3 | > 100 µM
23 | Cc1cccc(C)c1NC(=O)C[n+]1cccc(S(=O)(=O)N(C)C)c1 [Compound 47] | 1 to 3 | 10 to 30 µM
24 | Cc1cccc(C)c1NC(=O)C(Cc1ccccc1)[n+]1ccccc1 (stereo not drawn) [Compound 106] | 1 to 3 | > 100 µM
25 | CCCn1c(C)cc[n+]1CC(=O)Nc1c(C)cccc1C [Compound 81] | 1 to 3 | > 100 µM
26 | Cc1cccc(C)c1NC(=O)C[n+]1cccc(Cc2ccccc2)c1 [Compound 34] | < 1 | < 10 µM
27 | CCn1c(C)cc[n+]1CC(=O)Nc1c(C)cccc1C [Compound 104] | 1 to 3 | > 100 µM
